US9040707B2, “Bicyclic thiazoles as allosteric modulators of mGluR5 receptors” (Janssen Pharmaceutica NV, priority 2009, dated 2015)

How the values were obtained:
human mGluR5a receptor = biological target: T1, human mGluR5a receptor (Homo sapiens, UniProt P41594); assay: Functional Assay 2: Ca2+ mobilization, HEK cells with human mGluR5a receptor (H10H cell line); assay type: cell-based; conditions: H10H cell line; for EC50: glutamate EC20; for Emax: HEK293, maximum average response at a single concentration, relative to glutamate ECMax
T1 construct: host or cells: HEK293A (monoclones H10H and H12H)
Procedure: Human mGluR5a cDNA in pCMV6-XL6 mammalian expression plasmid was purchased from OriGene Technologies, Inc. (catalogue number SC326357) and subcloned into pcDNA3.1(−). […] Monoclones were named for the species (“H” for human) plus the location on the plate (e.g. “10H”).
The following day, the growth medium was removed and the cells were washed with assay buffer containing 1× Hank's balanced salt solution (Invitrogen, Carlsbad, Calif.), 20 mM HEPES, 2.5 mM probenecid, pH 7.4 and left with 20 μL of this reagent. Following this step, the cells were loaded with calcium indicator dye, fluo-4 AM, to a final concentration of 2 μM and incubated for 40-45 min at 37° C. The dye solution was removed and replaced with assay buffer. Cell plates were held for 10-15 min at room temperature and were then loaded into the Functional Drug Screening System 6000 (FDSS 6000, Hamamatsu, Japan).
After establishment of a fluorescence baseline for about 3 seconds, the compounds of the present invention were added to the cells, and the response in cells was measured. 2.3 minutes later an EC20 concentration of the mGluR5 receptor agonist glutamate was added to the cells, and the response of the cells was measured for about 1.7 minutes. All test compounds were dissolved and diluted to a concentration of 10 mM in 100% DMSO and then serially diluted into assay buffer for a 2× stock solution in 0.6% DMSO; stock compounds were then added to the assay for a final DMSO concentration of 0.3% after the first addition to the assay well. Calcium fluorescence measures were recorded as fold over basal fluorescence; raw data was then normalized to the maximal response to glutamate.
The concentration-response curves of compounds of the present invention, obtained in the presence of EC20 of mGluR5 receptor agonist glutamate to determine positive allosteric modulation, were generated using Microsoft Excel with IDBS XLfit add-ins. The raw data file containing all time points was used as the data source in the analysis template. This was saved by the FDSS as a tab-delimitted text file. Data were normalized using a static ratio function (F/F0) for each measurement of the total 350 values per well divided by each well's initial value. […] This is sufficient time to capture the peak amplitude of the cellular calcium response. […] Each of the three values collected at each concentration of test compound were weighted evenly. […] These two methods are in good agreement for curves with a clear plateau at the high concentration range.

T1 sequence (P41594 21-1180 isoform P41594-2 limits assumed): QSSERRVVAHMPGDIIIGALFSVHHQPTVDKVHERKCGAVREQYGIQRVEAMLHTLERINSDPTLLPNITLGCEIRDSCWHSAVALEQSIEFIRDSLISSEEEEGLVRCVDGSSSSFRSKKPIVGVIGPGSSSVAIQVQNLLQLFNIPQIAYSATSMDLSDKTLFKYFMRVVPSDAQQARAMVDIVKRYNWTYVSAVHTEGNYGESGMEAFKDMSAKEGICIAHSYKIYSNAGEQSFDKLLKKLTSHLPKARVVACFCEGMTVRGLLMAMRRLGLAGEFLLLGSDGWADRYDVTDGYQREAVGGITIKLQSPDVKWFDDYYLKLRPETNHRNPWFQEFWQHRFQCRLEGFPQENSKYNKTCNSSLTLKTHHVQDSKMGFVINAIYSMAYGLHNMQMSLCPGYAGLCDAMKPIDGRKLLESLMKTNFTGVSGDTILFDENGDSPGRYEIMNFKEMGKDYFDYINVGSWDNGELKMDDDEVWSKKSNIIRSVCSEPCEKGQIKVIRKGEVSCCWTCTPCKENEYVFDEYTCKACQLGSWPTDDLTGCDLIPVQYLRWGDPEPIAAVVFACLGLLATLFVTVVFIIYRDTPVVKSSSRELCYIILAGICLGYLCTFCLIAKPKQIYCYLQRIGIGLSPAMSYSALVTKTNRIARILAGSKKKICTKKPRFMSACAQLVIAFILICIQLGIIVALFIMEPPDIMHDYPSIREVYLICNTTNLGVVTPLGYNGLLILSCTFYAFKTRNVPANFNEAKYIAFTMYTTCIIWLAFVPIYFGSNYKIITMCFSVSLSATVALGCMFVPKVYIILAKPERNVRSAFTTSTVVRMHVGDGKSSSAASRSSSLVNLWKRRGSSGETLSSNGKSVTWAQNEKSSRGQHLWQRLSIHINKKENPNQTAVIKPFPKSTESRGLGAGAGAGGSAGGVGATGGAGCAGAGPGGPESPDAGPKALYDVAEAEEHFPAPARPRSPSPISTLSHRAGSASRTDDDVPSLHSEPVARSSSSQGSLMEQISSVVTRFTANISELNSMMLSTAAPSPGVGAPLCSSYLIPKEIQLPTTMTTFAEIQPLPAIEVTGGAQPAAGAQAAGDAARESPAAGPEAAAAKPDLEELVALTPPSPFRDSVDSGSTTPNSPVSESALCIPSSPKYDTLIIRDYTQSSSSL

Row | Structure (SMILES) | melting point [°C] | EC50 (human mGluR5a receptor) [nM] | Emax (human mGluR5a receptor) [%]
1 | O=C1c2sc(COc3ccc(F)cc3)nc2CCN1CC1CC1 [Compound 43, 5-(cyclopropylmethyl)-2-[(4-fluorophenoxy)methyl]-6,7-dihydro-thiazolo[5,4-c]pyridin-4(5H)-one] | 254 to 259.1 | 759 | 59
2 | O=C1c2sc(COc3ccc(F)cc3)nc2CCN1c1ccc(F)cc1 [Compound 6, 2-[(4-fluorophenoxy)methyl]-5-(4-fluorophenyl)-6,7-dihydro-thiazolo[5,4-c]pyridin-4(5H)-one] | > 280 | 457 | 75
3 | O=C1c2sc(COc3ccccc3)nc2CCCN1c1ccc(F)cc1 [Compound 11, 5-(4-fluorophenyl)-5,6,7,8-tetrahydro-2-(phenoxymethyl)-4H-thiazolo[5,4-c]azepin-4-one] | 120.4 | 214 | 81
4 | O=C1c2sc(COc3cccc(F)c3)nc2CCN1CC1CC1 [Compound 41, 5-(cyclopropylmethyl)-2-[(3-fluorophenoxy)methyl]-6,7-dihydro-thiazolo[5,4-c]pyridin-4(5H)-one] | 275.4 to 277.8 | 224 | 66
5 | O=C1c2sc(COc3cccc(F)c3)nc2CCN1c1ccc(F)cn1 [Compound 54, 2-[(3-fluorophenoxy)methyl]-5-(5-fluoro-2-pyridinyl)-6,7-dihydro-thiazolo[5,4-c]pyridin-4(5H)-one] | 125.8 to 126.4 | 288 | 79
6 | O=C1c2sc(COc3ccc(F)cc3)nc2CCN1c1ccc(F)cc1F [Compound 32, 5-(2,4-difluorophenyl)-2-[(4-fluorophenoxy)methyl]-6,7-dihydro-thiazolo[5,4-c]pyridin-4(5H)-one] | > 280 | 224 | 81
7 | Cc1cccc(N2CCc3nc(COc4ccccc4)sc3C2=O)n1 [Compound 46, 6,7-dihydro-5-(6-methyl-2-pyridinyl)-2-(phenoxymethyl)-thiazolo[5,4-c]pyridin-4(5H)-one] | 155.5 | 550 | 84

Next, values leading:

Row | melting point [°C] | EC50 (human mGluR5a receptor) [nM] | Emax (human mGluR5a receptor) [%] | Structure (SMILES)
8 | 252.1 to 255.3 | 4370 | 36 | O=C1c2sc(COc3ccccc3)nc2CCN1C1CC1 [Compound 44, 5-cyclopropyl-6,7-dihydro-2-(phenoxymethyl)-thiazolo[5,4-c]pyridin-4(5H)-one]
9 | 98.4 to 99.6 | > 30200 | 38 | C[C@@H](N1CCc2nc(COc3ccccc3F)sc2C1=O)C(C)(C)C [Compound 33, 2-[(2-fluorophenoxy)methyl]-6,7-dihydro-5-[(1R)-1,2,2-trimethylpropyl]-thiazolo[5,4-c]pyridin-4(5H)-one]
10 | 61.2 to 64.2 | 871 | 83 | COc1ccccc1N1CCc2nc(COc3cccc(F)c3)sc2C1=O [Compound 37, 2-[(3-fluorophenoxy)methyl]-6,7-dihydro-5-(2-methoxyphenyl)-thiazolo[5,4-c]pyridin-4(5H)-one]
11 | 127 to 130.5 | > 30200 | 16 | O=C1c2sc(OCc3cc(F)cc(F)c3)nc2CCN1c1ccc(F)cc1F [Compound 73, 5-(2,4-difluorophenyl)-2-[(3,5-difluorophenyl)methoxy]-6,7-dihydro-thiazolo[5,4-c]pyridin-4(5H)-one]
12 | 126.3 to 130.8 | > 10000 | 51 | O=C1c2sc(COc3ccc(F)cc3)nc2CCN1C1CC1 [Compound 62, 5-cyclopropyl-2-[(4-fluorophenoxy)methyl]-6,7-dihydro-thiazolo[5,4-c]pyridin-4(5H)-one]
13 | 235.8 to 240.2 | > 30200 | 27 | O=C1c2sc(COc3ccccc3F)nc2CCN1C1CC1 [Compound 61, 5-cyclopropyl-2-[(2-fluorophenoxy)methyl]-6,7-dihydro-thiazolo[5,4-c]pyridin-4(5H)-one]
